US7446117B2, “Cox-2 inhibiting pyridine derivatives” (Glaxo Group Limited, priority 2002, dated 2008)

Target: T1, microsomal h-COX2 (Homo sapiens, UniProt P35354)
T1 construct: made in house; host or cells: baculovirus infected SF9 cells (microsomal preparation)
T1 sequence (P35354 18-604): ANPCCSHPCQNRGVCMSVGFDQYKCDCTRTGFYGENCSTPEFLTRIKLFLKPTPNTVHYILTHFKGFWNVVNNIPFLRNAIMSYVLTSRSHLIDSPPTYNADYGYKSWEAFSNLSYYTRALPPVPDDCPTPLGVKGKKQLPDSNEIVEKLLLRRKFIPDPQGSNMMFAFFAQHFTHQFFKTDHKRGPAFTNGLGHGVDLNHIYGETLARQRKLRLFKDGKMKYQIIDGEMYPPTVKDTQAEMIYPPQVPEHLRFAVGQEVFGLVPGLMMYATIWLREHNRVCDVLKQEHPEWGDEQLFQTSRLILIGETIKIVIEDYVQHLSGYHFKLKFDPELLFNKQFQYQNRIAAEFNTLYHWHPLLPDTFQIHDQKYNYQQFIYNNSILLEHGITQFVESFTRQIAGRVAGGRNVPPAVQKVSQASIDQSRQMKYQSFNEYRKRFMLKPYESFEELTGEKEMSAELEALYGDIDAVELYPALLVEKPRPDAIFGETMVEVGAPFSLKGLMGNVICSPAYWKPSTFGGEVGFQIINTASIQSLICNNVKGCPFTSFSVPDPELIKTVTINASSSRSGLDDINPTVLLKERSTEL
Experiment: Microsomal assay: inhibitory activity against microsomal h-COX2
Format: biochemical
Conditions: microsomal preparation from baculovirus infected SF9 cells; 1 hour incubation with compound; 0.1 μM arachidonic acid, 10 minutes; PGE2 by EIA; read-out: IC50 values for inhibition of COX-2
Method: Biological Data Microsomal Assay
Inhibitory activity against microsomal h-COX2 was assessed against a microsomal preparation from baculovirus infected SF9 cells. An aliquot of microsomal preparation was thawed slowly on ice and a 1/40,000 dilution prepared from it into the assay buffer (sterile water, degassed with argon containing 100 mM HEPES (pH 7.4), 10 mM EDTA (pH7.4), 1 mM phenol, 1 mM reduced glutathione, 20 mg/ml gelatin and 0.001 mM Hematin). Once diluted the enzyme solution was then sonicated for 5 seconds (Branson sonicator, setting 4, 1 cm tip) to ensure a homogeneous suspension. 155 μl enzyme solution was then added to each well of a 96-well microtitre plate containing either 5 μl test compound (40× required test concentration) or 5 μl DMSO for controls. Plates were then mixed and incubated at room temperature for 1 hour. Following the incubation period, 40 μl of 0.5 μM arachidonic acid was added to each well to give a final concentration of 0.1 μM. Plates were then mixed and incubated for exactly 10 minutes (room temperature) prior to addition of 25 μl 1M HCl (hydrochloric acid) to each well to stop the reaction. 25 μl of 1M NaOH (sodium hydroxide) was then added to each well to neutralise the solution prior to determination of PGE2 levels by enzyme immunoassay (EIA).

Row | Structure (SMILES) | IC50
1 | CC(C)CNc1cc(C(F)(F)F)cc(-c2ccc(S(C)(=O)=O)cc2)n1 [Example 19] | ≤ 500 nM
2 | Cc1cc(NCc2cnn(CF)c2)nc(-c2ccc(S(C)(=O)=O)cc2)c1 [Example 126] | ≤ 500 nM
3 | CCC(CC)Nc1cc(C(F)(F)F)cc(-c2ccc(S(C)(=O)=O)cc2)n1 [Example 211] | ≤ 500 nM
4 | CS(=O)(=O)c1ccc(-c2cccc(NCc3ccccc3)n2)cc1 [Example 75] | ≤ 500 nM
5 | C[C@H](Nc1cc(C(F)(F)F)cc(-c2ccc(S(C)(=O)=O)cc2)n1)c1ccccc1 [Example 52] | ≤ 500 nM
6 | Cc1c(CNc2cc(C(F)(F)F)cc(-c3ccc(S(C)(=O)=O)cc3)n2)cnn1C [Example 188] | ≤ 500 nM
7 | CCc1cc(NCC(C)C)nc(-c2ccc(S(C)(=O)=O)cc2)c1 [Example 47] | ≤ 500 nM
8 | CS(=O)(=O)c1ccc(-c2cc(C(F)(F)F)cc(NCC3CCCCC3)n2)cc1 [Example 8] | ≤ 500 nM
9 | CCc1cc(-c2ccc(S(C)(=O)=O)cc2)nc(OCc2ccc(C)nc2)c1C#N [Example 236, 4-Ethyl-2-{[(6-methyl-3-pyridinyl)methyl]oxy}-6-[4-(methylsulfonyl)phenyl]-3-pyridinecarbonitrile] | ≤ 500 nM
10 | Cc1cc(OCC(C)C)nc(-c2ccc(S(C)(=O)=O)cc2)c1 [Example 10] | ≤ 500 nM
11 | CS(=O)(=O)c1ccc(-c2cc(C(F)(F)F)cc(Nc3ccc(Cl)nn3)n2)cc1 [Example 191] | ≤ 500 nM
12 | Cc1ncccc1COc1cc(C(F)(F)F)cc(-c2ccc(S(C)(=O)=O)cc2)n1 [Example 185] | ≤ 500 nM
13 | Cc1cc(NCc2cccs2)nc(-c2ccc(S(C)(=O)=O)cc2)c1 [Example 44] | ≤ 500 nM
14 | Cc1cccc(COc2cc(C(F)(F)F)cc(-c3ccc(S(C)(=O)=O)cc3)n2)n1 [Example 184] | ≤ 500 nM
15 | CCc1cc(OCc2ccc(C)nc2)nc(-c2ccc(S(C)(=O)=O)cc2)c1 [Example 134] | ≤ 500 nM
16 | Cc1ccc(Oc2cc(C(F)(F)F)cc(-c3ccc(S(C)(=O)=O)cc3)n2)cn1 [Example 167] | ≤ 500 nM
17 | Cc1cc(NCc2ccnn2C)nc(-c2ccc(S(C)(=O)=O)cc2)c1 [Example 218] | ≤ 500 nM
18 | CCC(CC)Nc1cc(C)cc(-c2ccc(S(C)(=O)=O)cc2)n1 [Example 74] | ≤ 500 nM

Row | Structure (SMILES) | IC50
19 | Cc1cc(NCc2nccn2C)nc(-c2ccc(S(C)(=O)=O)cc2)c1 [Example 80] | ≤ 500 nM
20 | CS(=O)(=O)c1ccc(-c2cc(C(F)(F)F)cc(OCc3cccnc3)n2)cc1 [Example 166] | ≤ 500 nM
21 | Cc1cc(OCc2ccnn2C)nc(-c2ccc(S(C)(=O)=O)cc2)c1 [Example 86] | ≤ 500 nM
22 | CCCCNc1cc(C(F)(F)F)cc(-c2ccc(S(C)(=O)=O)cc2)n1 [Example 18] | ≤ 500 nM
23 | CS(=O)(=O)c1ccc(-c2cc(C(F)(F)F)cc(NCc3ncc[nH]3)n2)cc1 [Example 153] | ≤ 500 nM
24 | Cc1cc(NCc2cn(C)nc2C)nc(-c2ccc(S(C)(=O)=O)cc2)c1 [Example 113] | ≤ 500 nM
25 | Cc1cc(-c2ccc(S(C)(=O)=O)cc2)nc(NCc2ccccc2)c1C [Example 59] | ≤ 500 nM
26 | CS(=O)(=O)c1ccc(-c2cc(C(F)(F)F)cc(NCc3ccco3)n2)cc1 [Example 6] | ≤ 500 nM
27 | CS(=O)(=O)c1ccc(-c2cc(C(F)(F)F)cc(NCC3CCCC3)n2)cc1 [Example 219, N-(cyclopentanemethyl)-4-(trifluoromethyl)-6-[4-(methylsulfonyl)phenyl]pyridine-2-amine] | ≤ 500 nM
28 | CS(=O)(=O)c1ccc(-c2cc(C(F)(F)F)cc(NC3CCCC3)n2)cc1 [Example 26] | ≤ 500 nM
29 | CCc1cc(NCc2ncnn2CC)nc(-c2ccc(S(C)(=O)=O)cc2)c1 [Example 232] | ≤ 500 nM
30 | CCCCNc1cc(C)cc(-c2ccc(S(C)(=O)=O)cc2)n1 [Example 23] | ≤ 500 nM
31 | CS(=O)(=O)c1ccc(-c2cc(C(F)(F)F)cc(NCc3cccs3)n2)cc1 [Example 174] | ≤ 500 nM
32 | Cc1cnc(CNc2cc(C(F)(F)F)cc(-c3ccc(S(C)(=O)=O)cc3)n2)cn1 [Example 51] | ≤ 500 nM
33 | Cc1ncccc1Nc1cc(C(F)(F)F)cc(-c2ccc(S(C)(=O)=O)cc2)n1 [Example 160] | ≤ 500 nM
34 | CS(=O)(=O)c1ccc(-c2cc(C(F)(F)F)cc(NCC3CCOCC3)n2)cc1 [Example 175] | ≤ 500 nM
35 | CN(Cc1ccccc1)c1cc(C(F)(F)F)cc(-c2ccc(S(C)(=O)=O)cc2)n1 [Example 5] | ≤ 500 nM
